Measured values as given in patent US20040116346A1, “Affinity small molecules for the EPO receptor” (priority 2002, published 2004).
Entries after “also recorded” stand apart in the source; their conditions may differ.

What was measured:
[1] = test system: cortical neurons isolated from embryonic day 18 rats; test: glutamate-induced neuronal death in cultured cortical neurons; type: cell-based, rat; conditions: 24 hours pre-treatment, 300 uM glutamate for 24 hours
Method: Primary cultured cells were used as a model to evaluate the subject small molecule effect on CNS. Glutamate neurotoxicity can be most directly studied using neurons prepared from the brain at the late embryonic stage and subsequently cultured for maturation. To examine the effect of the subject small molecules (E5A24 and E5A29) on glutamate-induced neuronal death, cortical neurons isolated from embryonic day 18 rats, were cultured for 10 days. Subsequently, neurons were treated for 24 hours with or without the subject small molecules, and further exposed to 300 uM glutamate for 24 hours. After glutamate was washed out, the cells were cultured for another 24 hours. During the glutamate challenge and subsequent culture, the subject small molecules were absent. Finally, the cell viability was examined.

TF-1 and UT-7 cells = test: biological testing in cell lines (cell proliferation assay and cell signaling assay); type: cell-based
Description: Compounds identified in the initial screen were further tested for their biological activity in two assays: a cell proliferation assay and a cell signaling assay in TF-1 and UT-7 cells. The hit rate in cell proliferation was 0.16%; hit rate in cell signaling was 0.25%.
At the end of the biological testing in cell lines TF-1 and UT-7, E4, E5, E5 analogs and E6 molecules were some of the compounds identified as showing the best activity.
Compounds identified in the initial screen were further tested for their biological activity in two assays: a cell proliferation assay and a cell signaling assay in TF-1 cells. The hit rate in cell proliferation was 0.16%; hit rate in cell signaling was 0.25%.
At the end of the biological testing in cell line, E4, E5, E5 analog, and E6 molecules were some of the compounds identified as showing the best activity.

[2] = test system: Mouse or human bone marrow cells; test: Formation of erythroid colonies (CFU-e, BFU-e) from bone marrow in methylcellulose; type: cell-based; conditions: mouse and human bone marrow
Method: Mouse or human bone marrow cells were stimulated in methylcellulose for 7 days (mouse) or 14 days (human) with non-peptide EPO-R modulators. Formation of erythroid colonies was observed. (See FIGS. 6 to 8)
(1) Dilute human bone marrow 1:1 with sterile PBS. (2) Slowly layer bone marrow into 50 ml tubes containing 20 ml of LSM Lymphocyte separation medium (ICN/Cappel—cat #50494). 50 ml bone marrow will yield 2 tubes. (3) Spin tubes at 2000 rpm for 30 minutes with brake off. (4) Slowly take out the middle layer using a 10 ml pipette and transfer into a new 50 ml tube. (5) Add PBS +0.5% BSA +5 mM EDTA to tube for washing. (6) Spin tube for 5 minutes at speed 4 with brake on. (7) Repeat wash step 2 more times. (8) After 3rd wash, resuspend pellet in SF Iscoves' MDM medium. (9) Count by diluting cells in 3% acetic acid. (10) Dilute cells to desired concentration (5×10^5 cells/ml) and seed onto methylcellulose.
(1) Tubes containing 3.0 ml of methylcellulose medium (Stemcell Technology, cat #H4230) supplemented with 50 ng/ml hSCF are prepared. (Alternatively the methylcellulose could be supplemented with 50 ng/ml hSCF, 20 ng/ml of hIL-3 and hIL-6). (2) Compounds or EPO of desired concentrations are added to the tubes. […] Colonies are scored on day twelve.
Bone marrow cells were isolated from mouse femurs. […] The colonies were scored on day seven. […]

[3] = test system: carboplatin-treated 8 week old C57BL mice; test: Carboplatin induced anemia model (hematocrit); type: in vivo, mouse
Method: Mice were treated with Carboplatin agent (available from Sigma, used regularly in chemotherapy) and a drop in hematocrit was induced. […] (FIGS. 9-11)
Determination of Effect of Non-peptide EPO-R Binding Small Molecule on Hematocrit in Carboplatin-Induced Anemia in 8 Week C57BI Male Mice
Preparation of injection solutions: Vehicle—Saline with 0.1 mg/mL BSA; Add 30 mg of BSA to 300 mL Saline; Vacuum filter under sterile conditions in laminar flow hood; Aliquot the saline (0.1 mg/mL BSA) solution into mini-sorp tubes. At least 41×7 mL aliquots should be prepared. Place caps on the tubes and store refrigerated at 4° C.;
Carboplatin—Dose of 120 mg/kg: Calculations for single injection given to 36 male mice (8 wks old˜25 g): […]×0.025 kg×36 mice=108 mg; Injections are delivered i.p. in a volume of 0.5 cc/mouse=0.5 cc/mouse×36 mice=18 cc; Carboplatin at 6 mg/mL for 36 mice: 108 mg/18 cc.; 120 mg/20 cc; On day of injection, add 120 mg carboplatin (Sigma #C2538) to 20 cc saline in a 100 cc beaker containing a stirring bar. Cover beaker with parafilm. Mix until the carboplatin has completely dissolved.
11 nmole/kg/mouse/day×0.025 kg×12 mice=3.3 nmoles/day; Injections are delivered i.p. in a volume of 0.5 cc/mouse/day=0.5 cc/mouse/day×12 mice=6 cc/day; non-peptide EPO-R binding small molecule for […]: 3.3 nmoles/6 cc each day: 3.85 nmole/7 cc each day; non-peptide EPO-R binding small molecule aliquot at 2 mM=2 nmole/uL; 3.85 nmole per day in 7 cc (0.55 nmole/mL); Therefore: 3.85 nmole divided by 2 nmole/uL stock=1.925 uL at 2 mM; Prepare in advance at least 10 aliquots of non-peptide EPO-R binding small molecule at 2 mM in small microfuge tubes, each with a volume of 2 uL. Freeze these aliquots; On each day of injections, add 1 thawed aliquot of the non-peptide EPO-R binding small molecule at 2 mM containing a 2 uL volume to a tube containing 7 cc of sterile saline (0.1 mg/mL BSA). […]

[4] = test system: P-19 cells (a neural-like embryonal carcinoma cell line); test: anti-apoptotic effect in P-19 cells upon withdrawal of serum; type: cell-based; conditions: treated 24 hours prior to serum withdrawal; serum withdrawn for 48 hours
Method: Experiments were performed according to the described protocol. The anti-apoptotic effect of the subject small molecules was evaluated in P-19 cells (a neural-like embryonal carcinoma cell line) that undergo apoptosis upon withdrawal of serum. Briefly, cells were treated with small molecules for 24 hours prior to serum withdrawal. Serum was withdrawn for 48 hours in the presence or absence of a subject small molecule (EM5 and E5A24). At the end of that period, cell survival was evaluated. […] This Figure is representative of the experiment and of the subject small molecules. The experiments were performed according to literature procedures (Siren et. al., Proc. Nat. Acad. Sci. 98, 4044, 2001). Cell survival was determined according to the protocol described for cellular proliferation.

[5] = test system: Bcl-xL protein in UT-7 and TF-1 cells; test: up-regulation of Bcl-xL expression (immunoprecipitation, western blot); type: cell-based
Method: When the subject compounds were tested for anti-apoptotic effect was evaluated, these antibodies were used: Anti-Bcl-XL/s antibody (Santa Cruz Biotechnology, SC-1041), Anti-Bcl-XL antibody (Santa Cruz Biotechnology, SC8392)
A number of molecules of the subject invention were evaluated in in vitro systems that reflect the condition of cerebral ischemia and metabolic stress. Firstly, it is known that one of the mechanisms by which EPO prevents neuronal apoptosis is by up-regulating the expression levels of Bcl-x1 protein, which is a well-described anti-apoptotic protein. Thus, cells-lines that are known to be EPO responsive (UT-7 and TF-1, used in previous studies) were used as a cellular system to examine the small molecules' anti-apoptotic activity through EPO-R.
The evaluation was performed by starving the cells, stimulating the cells with compounds at appropriate concentrations (or no stimulation for control samples) and immunoprecipitating the cell lysates with antibody specific to both forms (short and long) of Bcl-xL protein. The amount of Bcl-xL (long protein form, known to have anti-apoptotic activity) protein was evaluated by western blot analysis.

EPO-R modulating domain = target: T1, EPO-R modulating domain (Homo sapiens, UniProt P19235); conditions: cited from earlier work
T1 sequence (P19235 25-508): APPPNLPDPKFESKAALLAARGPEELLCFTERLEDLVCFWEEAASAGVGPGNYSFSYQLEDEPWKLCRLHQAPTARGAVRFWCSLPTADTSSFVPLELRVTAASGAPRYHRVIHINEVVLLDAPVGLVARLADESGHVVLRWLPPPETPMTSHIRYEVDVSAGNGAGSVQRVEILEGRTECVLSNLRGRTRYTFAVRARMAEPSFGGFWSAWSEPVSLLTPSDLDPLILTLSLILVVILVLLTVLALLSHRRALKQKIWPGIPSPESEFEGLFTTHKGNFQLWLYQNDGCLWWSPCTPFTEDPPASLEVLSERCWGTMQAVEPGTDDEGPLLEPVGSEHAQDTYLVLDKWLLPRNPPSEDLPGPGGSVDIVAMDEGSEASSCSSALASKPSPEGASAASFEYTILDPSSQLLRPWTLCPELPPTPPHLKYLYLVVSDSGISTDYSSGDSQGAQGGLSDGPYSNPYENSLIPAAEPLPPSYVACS

Molecule: Cc1n[nH]c2c1C(c1ccco1)C1=C(CC(C)(C)CC1=O)N2 (stereo not drawn) [Compound E5A29]
- cell survival / glutamate induced neuronal death [1]: prevented glutamate induced neuronal death in a dose-responsive manner; also recorded: increased cell survival
- increase of cell survival after glutamate challenge [1]: 60%

Molecule: Cn1ncc(S(=O)Oc2ccccc2)c(Cl)c1=O (stereo not drawn) [Compound E6]
- maximum activity compared to EPO natural hormone (TF-1 and UT-7 cells; cell line (TF-1 cells)): maximum activity comparable to that of the maximum activity of EPO
- maximum activity compared to EPO natural hormone (TF-1 and UT-7 cells; cell lines TF-1 and UT-7, in the presence of low levels of EPO): maximum activity comparable to that of the maximum activity of EPO
- CFU-e formation compared with EPO [2]: stimulate CFU-e formation to the same extent as EPO
- cooperative effect with EPO on hematocrit levels ([3]; compound given i.p.): cooperative effect
- hematocrit levels in animals treated with carboplatin ([3]; mouse, in vivo): restore hematocrit levels

Molecule: Cc1cc(NCC2CC2)n2nc(Nc3cc(Cl)ccc3C)nc2n1 [EM5]
- cell survival / viability after withdrawal of serum [4]: protect cells from apoptosis; also recorded: increased cell viability
- Bcl-xL expression ([5]; TF-1 cells): up-regulation of Bcl-xL expression
- Bcl-xL expression ([5]; UT-7 cells): up-regulation of Bcl-xL expression
- up-regulation of Bcl-xL protein ([5]; both cell lines (UT-7 and TF-1)): induced up-regulation of Bcl-xL protein in a dose-responsive manner

Molecule: QRVEILEGRTECVLSNLRGRTRY (listed as Homo sapiens) [SEQ ID NO:1]
- modulation of the activity of the EPO-R (EPO-R modulating domain): modulation of the activity of the EPO-R in the presence or absence of the ligand
